From patent US20110171171A1, “BRIDGED SECONDARY AMINES AND USE THEREOF AS IAP BIR DOMAIN BINDING COMPOUNDS” (Aegera Therapeutics, Inc., priority 2008, published 2011)

Tested on: Ovarian adenocarcinoma SKOV3 cells
Test: SKOV3 cell death assay (MTT, 72 hours)
Assay type: cell-based
Conditions: Homo sapiens, SK-OV-3, compound alone
Experimental: Ovarian adenocarcinoma SKOV3 cells were cultured as monolayers in McCoy's 5a medium (HyClone) supplemented with 2.2 g/L sodium bicarbonate (Gibco), 10% FBS (HyClone) and 1% penicillin/streptomycin (HyClone). Cells were seeded in 96 well plates at 5000 cells/well. After 24 hours in culture, cells were treated with compound. Cells were incubated in the presence of compound for 72 hours. Metabolic viability of remaining cells was assessed by MTT (thiazolyl blue tetrazolium bromide, Sigma) assay.
(§1) EC50 values (50% cell survival in the presence of compound as compared to untreated controls) were calculated from survival curves using BioAssay software (CambridgeSoft, HCT116 and SKOV3 SAR) and GraphPad Prism (Graph Pad Software Inc., Synoviocyte SAR).

SMILES | EC50 [nM]
CN[C@@H](C)C(=O)N[C@H](C(=O)N1CCC[C@H]1CN(CCc1ccc(F)cc1)C(=O)CNC(=O)c1ccc(C(=O)NCC(=O)N(CCc2ccc(F)cc2)C[C@@H]2CCCN2C(=O)[C@@H](NC(=O)[C@H](C)NC)C2CCCCC2)cc1)C1CCCCC1 [Compound 7] | < 100
CN[C@@H](C)C(=O)N[C@H](C(=O)N1CCC[C@H]1CN(CCc1ccccc1)C(=O)CNC(=O)C1CCC(C(=O)NCC(=O)N(CCc2ccccc2)C[C@@H]2CCCN2C(=O)[C@@H](NC(=O)[C@H](C)NC)C2CCCCC2)CC1)C1CCCCC1 (some centres unmarked) [Compound 4] | < 100
CN[C@@H](C)C(=O)N[C@H](C(=O)N1CCC[C@H]1CN(CCc1ccccc1)C(=O)CNC(=O)c1ccc2cc(C(=O)NCC(=O)N(CCc3ccccc3)C[C@@H]3CCCN3C(=O)[C@@H](NC(=O)[C@H](C)NC)C3CCCCC3)ccc2c1)C1CCCCC1 [Compound 3] | < 100
CN[C@@H](C)C(=O)N[C@H](C(=O)N1CCC[C@H]1CN(CCc1ccc(F)cc1)C(=O)c1ccc(C(=O)N(CCc2ccc(F)cc2)C[C@@H]2CCCN2C(=O)[C@@H](NC(=O)[C@H](C)NC)C2CCCCC2)cc1)C1CCCCC1 [Compound 5] | < 100

Tested on: Colorectal carcinoma HCT116 cells
Test: HCT116 + ETR1 cell death assay (MTT, 72 hours)
Assay type: cell-based
Conditions: with HGS ETR1 40 ng/ml
Experimental: Colorectal carcinoma HCT116 cells were cultured as monolayers in 96 well plates at a density of 2000 cells per well in McCoy's 5a medium (HyClone) supplemented with 2.2 g/L sodium bicarbonate (Gibco), 10% FBS (HyClone) and 1% penecillin/streptomycin (HyClone). 24 hours later, triplicate wells were treated with HGS ETR1 (40 ng/ml) in combination with compound. Cells were incubated in the presence of compound and HGS agonistic Trail receptor antibody, ETR1 (Mapatumamab, 40 ng/ml) for 72 hours. Metabolic viability of remaining cells was assessed by MTT (thiazolyl blue tetrazolium bromide, Sigma) assay.
as §1

SMILES | EC50 [nM]
CN[C@@H](C)C(=O)N[C@H](C(=O)N1CCC[C@H]1CN(C(=O)CNC(=O)c1ccc(-c2ccc(C(=O)NCC(=O)N(C[C@@H]3CCCN3C(=O)[C@@H](NC(=O)[C@H](C)NC)C3CCCCC3)C3Cc4ccccc4C3)cc2)cc1)C1Cc2ccccc2C1)C1CCCCC1 [Compound 15] | < 100
CN[C@@H](C)C(=O)N[C@H](C(=O)N1CCC[C@H]1CN(CCc1ccc(F)cc1)C(=O)CNC(=O)c1ccc(C(=O)NCC(=O)N(CCc2ccc(F)cc2)C[C@@H]2CCCN2C(=O)[C@@H](NC(=O)[C@H](C)NC)C2CCCCC2)cc1)C1CCCCC1 [Compound 7] | < 100
CC[C@H](NC)C(=O)N[C@H](C(=O)N1CCC[C@H]1CN(CCc1ccccc1)C(=O)c1ccc(-c2ccc(C(=O)N(CCc3ccccc3)C[C@@H]3CCCN3C(=O)[C@@H](NC(=O)[C@H](CC)NC)C3CCCCC3)cc2)cc1)C1CCCCC1 [Compound 39] | < 100
CCCN[C@@H](C)C(=O)N[C@H](C(=O)N1CCC[C@H]1CN(CCc1ccccc1)C(=O)c1ccc(-c2ccc(C(=O)N(CCc3ccccc3)C[C@@H]3CCCN3C(=O)[C@@H](NC(=O)[C@H](C)NCCC)C3CCCCC3)cc2)cc1)C1CCCCC1 [Compound 38] | < 100
CN[C@@H](C)C(=O)N[C@H](C(=O)N1CCC[C@H]1CN(CCc1ccc(OC)cc1)C(=O)c1ccc2cc(C(=O)N(CCc3ccc(OC)cc3)C[C@@H]3CCCN3C(=O)[C@@H](NC(=O)[C@H](C)NC)C3CCCCC3)ccc2c1)C1CCCCC1 [Compound 13] | > 100
CN[C@@H](C)C(=O)N[C@H](C(=O)N1CCC[C@H]1CN(CCc1ccc(F)cc1)C(=O)CNC(=O)C1CCC(C(=O)NCC(=O)N(CCc2ccc(F)cc2)C[C@@H]2CCCN2C(=O)[C@@H](NC(=O)[C@H](C)NC)C2CCCCC2)CC1)C1CCCCC1 (some centres unmarked) [Compound 10] | < 100
CN[C@@H](C)C(=O)N[C@H](C(=O)N1CCC[C@H]1CN(CCc1ccccc1)C(=O)CNC(=O)C1CCC(C(=O)NCC(=O)N(CCc2ccccc2)C[C@@H]2CCCN2C(=O)[C@@H](NC(=O)[C@H](C)NC)C2CCCCC2)CC1)C1CCCCC1 (some centres unmarked) [Compound 4] | < 100
CN[C@@H](C)C(=O)N[C@H](C(=O)N1CCC[C@H]1CN(CCc1ccccc1)C(=O)CNC(=O)c1ccc2cc(C(=O)NCC(=O)N(CCc3ccccc3)C[C@@H]3CCCN3C(=O)[C@@H](NC(=O)[C@H](C)NC)C3CCCCC3)ccc2c1)C1CCCCC1 [Compound 3] | < 100
CN[C@@H](C)C(=O)N[C@H](C(=O)N1CCC[C@H]1CN(CCc1ccccc1)C(=O)c1ccc(-c2ccc(C(=O)N(CCc3ccccc3)C[C@@H]3CCCN3C(=O)[C@@H](NC(=O)[C@H](C)NC)c3ccccc3)cc2)cc1)c1ccccc1 [Compound 25] | < 100
CN[C@@H](C)C(=O)N[C@H](C(=O)N1CCC[C@H]1CN(CCc1ccc(F)cc1)C(=O)c1ccc(C(=O)N(CCc2ccc(F)cc2)C[C@@H]2CCCN2C(=O)[C@@H](NC(=O)[C@H](C)NC)C2CCCCC2)cc1)C1CCCCC1 [Compound 5] | < 100
CN[C@@H](C)C(=O)N[C@H](C(=O)N1CCC[C@H]1CN(CCc1ccccc1)C(=O)CNC(=O)c1ccc(-c2ccc(C(=O)NCC(=O)N(CCc3ccccc3)C[C@@H]3CCCN3C(=O)[C@@H](NC(=O)[C@H](C)NC)C3CCCCC3)cn2)nc1)C1CCCCC1 [Compound 29] | < 100
CN[C@@H](C)C(=O)N[C@H](C(=O)N1CCC[C@H]1CN(CCc1ccccc1)C(=O)c1ccc2cc(C(=O)N(CCc3ccccc3)C[C@@H]3CCCN3C(=O)[C@@H](NC(=O)[C@H](C)NC)c3ccccc3)ccc2c1)c1ccccc1 [Compound 24] | < 100
CN[C@@H](C)C(=O)N[C@H](C(=O)N1CCC[C@H]1CN(CCc1ccc(OC)cc1)C(=O)CNC(=O)c1ccc(-c2ccc(C(=O)NCC(=O)N(CCc3ccc(OC)cc3)C[C@@H]3CCCN3C(=O)[C@@H](NC(=O)[C@H](C)NC)C3CCCCC3)cc2)cc1)C1CCCCC1 [Compound 14] | > 100
CN[C@@H](C)C(=O)N[C@H](C(=O)N1CCC[C@H]1CN(CCc1ccccc1)C(=O)c1ccc(-c2ccc(C(=O)N(CCc3ccccc3)C[C@@H]3CCCN3C(=O)[C@@H](NC(=O)[C@H](C)NC)C3CCOCC3)cc2)cc1)C1CCOCC1 [Compound 27] | < 100
CN[C@@H](C)C(=O)N[C@H](C(=O)N1CCC[C@H]1CN(CCc1ccccc1)C(=O)[C@@H](C)NC(=O)c1ccc(-c2ccc(C(=O)N[C@H](C)C(=O)N(CCc3ccccc3)C[C@@H]3CCCN3C(=O)[C@@H](NC(=O)[C@H](C)NC)C3CCCCC3)cc2)cc1)C1CCCCC1 [Compound 31] | < 100
CN[C@@H](C)C(=O)N[C@H](C(=O)N1CCC[C@H]1CN(CCc1ccccc1)C(=O)CN(C)C(=O)c1ccc(-c2ccc(C(=O)N(C)CC(=O)N(CCc3ccccc3)C[C@@H]3CCCN3C(=O)[C@@H](NC(=O)[C@H](C)NC)C3CCCCC3)cc2)cc1)C1CCCCC1 [Compound 32] | < 100
CN[C@@H](C)C(=O)N[C@H](C(=O)N1CCC[C@H]1CN(CCc1ccc(F)cc1)S(=O)(=O)c1ccc2cc(S(=O)(=O)N(CCc3ccc(F)cc3)C[C@@H]3CCCN3C(=O)[C@@H](NC(=O)[C@H](C)NC)C3CCCCC3)ccc2c1)C1CCCCC1 [Compound 28] | < 100
CN[C@@H](C)C(=O)N[C@H](C(=O)N1CCC[C@H]1CN(CCc1ccccc1)C(=O)c1ccc2cc(C(=O)N(CCc3ccccc3)C[C@@H]3CCCN3C(=O)[C@@H](NC(=O)[C@H](C)NC)C3CCCCC3)ccc2c1)C1CCCCC1 [Compound 12] | < 100
CN[C@@H](C)C(=O)N[C@H](C(=O)N1CCC[C@H]1CN(CCc1ccccc1)C(=O)c1ccc2cc(C(=O)N(CCc3ccccc3)C[C@@H]3CCCN3C(=O)[C@@H](NC(=O)[C@H](C)NC)C3CCOCC3)ccc2c1)C1CCOCC1 [Compound 26] | < 100
CN[C@@H](C)C(=O)N[C@H](C(=O)N1CCC[C@H]1CN(CCc1ccccc1)C(=O)c1ccc(-c2ccc(C(=O)N(CCc3ccccc3)C[C@@H]3CCCN3C(=O)[C@@H](NC(=O)[C@H](C)NC)C3CCCCC3)cn2)nc1)C1CCCCC1 [Compound 30] | < 100
CCN[C@@H](C)C(=O)N[C@H](C(=O)N1CCC[C@H]1CN(CCc1ccccc1)C(=O)c1ccc(-c2ccc(C(=O)N(CCc3ccccc3)C[C@@H]3CCCN3C(=O)[C@@H](NC(=O)[C@H](C)NCC)C3CCCCC3)cc2)cc1)C1CCCCC1 [Compound 37] | < 100
CN[C@@H](C)C(=O)N[C@H](C(=O)N1CCC[C@H]1CN(CCc1ccccc1)C(=O)c1csc(-c2ccc(-c3nc(C(=O)N(CCc4ccccc4)C[C@@H]4CCCN4C(=O)[C@@H](NC(=O)[C@H](C)NC)C4CCCCC4)cs3)cc2)n1)C1CCCCC1 [Compound 34] | < 100
CN[C@@H](C)C(=O)N[C@H](C(=O)N1CCC[C@H]1CN(CCc1ccccc1)C(=O)[C@H](C)NC(=O)c1ccc(-c2ccc(C(=O)N[C@@H](C)C(=O)N(CCc3ccccc3)C[C@@H]3CCCN3C(=O)[C@@H](NC(=O)[C@H](C)NC)C3CCCCC3)cc2)cc1)C1CCCCC1 [Compound 33] | < 100
CN[C@@H](C)C(=O)N[C@H](C(=O)N1CCC[C@H]1CN(CCc1ccccc1)C(=O)c1csc(-c2ccc(-c3ccc(-c4nc(C(=O)N(CCc5ccccc5)C[C@@H]5CCCN5C(=O)[C@@H](NC(=O)[C@H](C)NC)C5CCCCC5)cs4)cc3)cc2)n1)C1CCCCC1 [Compound 35] | < 100
CN[C@H](C(=O)N[C@H](C(=O)N1CCC[C@H]1CN(CCc1ccccc1)C(=O)c1ccc(-c2ccc(C(=O)N(CCc3ccccc3)C[C@@H]3CCCN3C(=O)[C@@H](NC(=O)[C@@H](NC)C3CC3)C3CCCCC3)cc2)cc1)C1CCCCC1)C1CC1 [Compound 36] | < 100
